Results published in US12570684B2 (UNIVERSITY OF TENNESSEE RESEARCH FOUNDATION, priority 2020, dated 2026).
Like-named read-outs stand apart in the source and are kept apart here.

Key:
[1] = molecular target: MraY (Hydrogenivirga sp.) (Hydrogenivirga sp. 128-5-R1-1, UniProt Z9Y2G8N0L0); experiment: MraY assay; type: biochemical
Experimental: Expression and purification of HyMraY. The gene mraY of Hydrogenivirga spp. 128-5-R1-1 was cloned with a N-terminal His6 tag into a pET22b vector. […] The proteins were purified using a nickel, cation exchange, and size exclusion chromatography.
MraY assay. MraY assay substrates, Park's nucleotide-N^ε-C6-dansylthiourea, neryl phosphate, were chemically synthesized according to the reported procedures.^7 Park's nucleotide-N^ε-C6-dansylthiourea (2 mM stock solution, 1.88 jiL), MgCl2 (0.5 M, 5 jiL), KCl (2 M, 5 jiL), Triton X-100 (0.5%, 5.63 jiL), Tris buffer (pH 8.0, 50 mM), neryl phosphate (0.1 M, 2.25 jiL), and inhibitor molecule (0-50 .ig/mL in Tris buffer) were placed in a 1.5 mL Eppendorf tube. […] (26° C.) and quenched with CHCl3 (100 jiL). […] The aqueous phase was assayed via reverse-phase HPLC.

AsPC-1 = experiment: MTT cytotoxicity assay; type: cell-based, human; conditions: 72 h
Experimental: (§1) Cell lines. The human primary PDAC cell lines PANC-1 (ATCC CRL 1469); Capan-2 (ATCC HTB-80) and metastatic PDAC cell lines Capan-1 (ATCC HTB-79), AsPC-1 (ATCC CRL-1682), L1210 (ATCC CCL-219), KB (ATCC CCL-17), HeLa, SiHa (ATCC HTB-35), HCT-116 (ATCC CCL-247), DLD-1 (ATCC CCL221), hTERT-HPNE (ATCC CRL-4023), Vero (ATCC CCL-81) were purchased from the ATCC. The cell lines were cultured and maintained in the media as recommended by the supplier. The cell lines were regularly tested for mycoplasma contamination and authenticated. In addition to ATCC cell lines, Dr. Glazer's lab generated patient-derived PDAC cell line, PD002. PD002 Cells were maintained and cultured in DMEM medium supplemented with 20% FBS and 100 IU/mL penicillin and incubated at 37° C. with 5% CO2.
(§2) MTT cytotoxicity assay. To study the effect of treatment with DPAGT1 inhibitors on the growth and proliferation of cells, a fixed number of cells (5×10^4 cells/well, 196 μL) were plated in a 96 well plate. Into each well 5 μL of drug concentration was added. After 72 h of incubation with drugs at 37° C., 5% CO2, 10 μL of MTT solution (5 mg/mL in PBS) was added and incubated another 3 h at 37° C., 5% CO2. The medium was removed, and DMSO (200 μL/well) was added. Viability was assessed on the basis of cellular conversion of MTT into a purple formazan product. The absorbance of the colored formazan product was measured at 570 nm by BioTek Synergy HT Spectrophotometer.

Capan-2 = experiment: MTT cytotoxicity assay; type: cell-based, human; conditions: 72 h
Experimental: as §1, §2

PANC-1 = experiment: MTT cytotoxicity assay; type: cell-based, human; conditions: 72 h
Experimental: as §1, §2

[2] = system: pancreatic cancer cell lines (Capan-2, PANC-1, and AsPC-1); experiment: Scratch (wound healing) assay; type: cell-based, human; conditions: 0.05, 0.1, and 0.2 μM, 24 h
Experimental: Scratch Assay. A confluent monolayer was formed in 24-well plates. The monolayer was scratched by a sterile 200 μL pipette tip and washed with PBS to remove cell debris. Complete medium with CPPB (5) (0, 0.05, 0.1, 0.2 μM) were added and scratched areas were photographed with microscope. The scratched cells were incubated at 37° C., 5% CO2. After 24 h, medium was removed and cells were stained with a 1:1 mixture of crystal violet and PBS for 5 min., washed with PBS twice, and photographed with microscope. Wound areas were measured and recovered areas were calculated.

PD002 [3] = experiment: Cell migration assay using Transwell (Boyden) chamber; type: cell-based; conditions: 0.1 μM, 18 h; compared to tunicamycin and gemcitabine at 0.1 μM
Experimental: Cell migration assays using Transwell chamber. Cell migration assay was performed using Boyden chamber (thermo fisher). PD002 cells (˜10^4 cells/mL) were seeded in 96-wells plate (Corning, HTS Transwell-96 Well Permeable Supports, pore size: 8 μm) in FBS free media and the lower chambers were filled with 10% FBS medium. CPPB, tunicamycin, or gemcitabine (0.1 μM) was added to the upper chamber. The cells were incubated for 18 h at 37° C. under 5% CO2. The cells were fixed using 4% paraformaldehyde for 0.5 h and stained with 0.05% crystal violet (300 μL/well), after 0.5 h, images were captured via 10× magnification microscopy.

Snail = experiment: Western blot of Snail in cervical cancer; type: cell-based; conditions: effective at 0.2 μM
E-cadherin = experiment: Immunofluorescent staining of E-cadherin; type: cell-based
DPAGT1 = experiment: Immunofluorescent staining of DPAGT1 expression; type: cell-based
PD002 [4] = experiment: Checkerboard synergy (FIC index) with paclitaxel; type: cell-based
Experimental: The synergistic or antagonistic activities of CPPB were assessed in vitro via checkerboard technique.

AglH (M. jannaschii) = molecular target: T1, AglH (M. jannaschii) (Methanocaldococcus jannaschii, UniProt Q58513); experiment: AglH assay; conditions: read-out: IC50 AglH (M. jannaschii)
T1 sequence (Q58513 1-301): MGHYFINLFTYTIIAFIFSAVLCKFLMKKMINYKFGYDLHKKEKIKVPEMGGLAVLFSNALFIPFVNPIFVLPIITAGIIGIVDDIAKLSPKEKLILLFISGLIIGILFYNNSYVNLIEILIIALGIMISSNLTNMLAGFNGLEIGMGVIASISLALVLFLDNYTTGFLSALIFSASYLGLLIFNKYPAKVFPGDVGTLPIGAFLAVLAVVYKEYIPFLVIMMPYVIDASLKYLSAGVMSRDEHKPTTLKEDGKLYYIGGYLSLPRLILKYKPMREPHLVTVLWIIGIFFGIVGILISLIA

Chain of MraY (Hydrogenivirga sp.) (Z9Y2G8N0L0 7-365 limits assumed): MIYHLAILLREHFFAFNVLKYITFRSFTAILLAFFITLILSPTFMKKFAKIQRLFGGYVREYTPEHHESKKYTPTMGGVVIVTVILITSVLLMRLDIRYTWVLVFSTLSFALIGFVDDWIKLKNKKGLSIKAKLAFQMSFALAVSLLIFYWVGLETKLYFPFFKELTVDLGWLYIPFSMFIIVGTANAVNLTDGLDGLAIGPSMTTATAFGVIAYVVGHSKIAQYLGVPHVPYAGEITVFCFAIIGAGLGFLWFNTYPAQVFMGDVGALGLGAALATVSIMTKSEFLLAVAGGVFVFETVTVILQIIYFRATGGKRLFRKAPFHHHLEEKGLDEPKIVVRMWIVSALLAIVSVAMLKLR

(2S,3S,4S)-2-((1R)-2-Amino-1-((2S,5R)-5-(2,4-dioxo-3,4-dihydropyrimidin-1(2H)-yl)-4-hydroxy-3-methoxytetrahydrofuran-2-yl)-2-oxoethoxy)-3,4-dihydroxy-N-(4-(4-(4-(trifluoromethoxy)-phenyl)piperidin-1-yl)benzyl)-3,4-dihydro-2H-pyran-6-carboxamide [CPPB]
IC50 [1]: 10.3 µM
IC50 (AsPC-1): 25 µM
IC50 (Capan-2): 30 µM
IC50 (PANC-1): 35 µM
migration of pancreatic cancer cell lines vs PBS control [2]: migrated far less
cell migration of PD002 via transwell chamber (PD002 [3]): inhibited on a higher level
Snail expression in SiHa (Snail): inhibited by treatment of CPPB in a concentration dependent manner
E-cadherin expression level in PD002 (E-cadherin; 0.05-0.2 μM): not noticeably changed
E-cadherin expression level in Panc-1 (E-cadherin; 0.05-0.2 μM): slightly increased
E-cadherin expression levels of PD002, PANC-1, and HCT-116 (E-cadherin; 0.05-2.0 μM): not changed significantly
DPAGT1 protein expression (DPAGT1): decreased
DPAGT1 expression in pancreatic cancer cell lines (DPAGT1; 0.2 μM): apparently inhibited
order of decrease of DPAGT1 expression (DPAGT1; 0.2 μM): PANC-1>PD002>>HCT-116
DPAGT1 expression levels of HCT-116 (DPAGT1; 20 μM): remained high
DPAGT1 expression of the pancreatic cancer cell lines at high concentration (DPAGT1; 2-20 μM): could not completely be inhibited
synergistic effect with paclitaxel (PD002 [4]; PD002): strong synergistic effect
IC50 (PD002 [4]; alone, read-out: IC50 of the single agent against PD002): 35 µM
ΣFIC (PD002 [4]; entry 1, CPPB 0.10 μM + paclitaxel 0.63 μM): 0.50
IC50 (PD002 [4]; entry 1, with paclitaxel 0.63 μM, read-out: IC50 CA (CPPB in combination)): 0.1 µM
ΣFIC (PD002 [4]; entry 2, CPPB 0.10 μM + paclitaxel […]): 0.13
IC50 (PD002 [4]; entry 2, with paclitaxel […], read-out: IC50 CA (CPPB in combination)): 0.1 µM
ΣFIC (PD002 [4]; entry 3, CPPB 0.20 μM + paclitaxel 0.0049 μM): 0.0096
IC50 (PD002 [4]; entry 3, with paclitaxel 0.0049 μM, read-out: IC50 CA (CPPB in combination)): 0.2 µM
ΣFIC (PD002 [4]; entry 4, CPPB 0.20 μM + paclitaxel 0.020 μM): 0.021
IC50 (PD002 [4]; entry 4, with paclitaxel 0.020 μM, read-out: IC50 CA (CPPB in combination)): 0.2 µM
ΣFIC (PD002 [4]; entry 5, CPPB 0.20 μM + paclitaxel 0.031 μM): 0.26
IC50 (PD002 [4]; entry 5, with paclitaxel 0.031 μM, read-out: IC50 CA (CPPB in combination)): 0.2 µM
ΣFIC (PD002 [4]; entry 6, CPPB 2.0 μM + paclitaxel 0.020 μM): 0.021
IC50 (PD002 [4]; entry 6, with paclitaxel 0.020 μM, read-out: IC50 CA (CPPB in combination)): 2 µM
ΣFIC (PD002 [4]; entry 7, CPPB 2.0 μM + paclitaxel 0.039 μM): 0.037
IC50 (PD002 [4]; entry 7, with paclitaxel 0.039 μM, read-out: IC50 CA (CPPB in combination)): 2 µM
ΣFIC (PD002 [4]; entry 8, CPPB 2.0 μM + paclitaxel 0.31 μM): 0.26
IC50 (PD002 [4]; entry 8, with paclitaxel 0.31 μM, read-out: IC50 CA (CPPB in combination)): 2 µM
IC50 (AglH (M. jannaschii)): 0.15 µM
